Reference: patent publication US9426996B2, “Use of benzoxaboroles as volatile antimicrobial agents on meats, plants, or plant parts” (AgroFresh Inc., priority 2013, dated 2016)

Columns and labels:
Botrytis cinerea [1] = test: in vivo volatile bioassay using strawberry, grape and blueberry
Method: In order to assess the in vivo activity of volatile antimicrobial Compound A in fruit, a volatile bioassay is developed using strawberry, grape and blueberry. Eight strawberries, 16 grapes or 30 blueberries (per replicate) are placed in a commercially relevant sized PET clamshell, with the stem end facing up for blueberries and grapes, and downwards for strawberries. A fresh wound is inoculated with 20 μL (strawberry and grape) or 10 μL (blueberry) of 1×10^6 per mL Botrytis cinerea spore suspension. The clamshells are placed inside a 10.8-cup SnapWare airtight container (Model #109842). A 42.5 mm Whatman #1 filter disk (Cat. No. 1001-042) is placed on a watch glass. Compound A is dissolved in acetone and added to the disks in a dose dependent manner to produce a final headspace concentration of 0.4, 2, or 10 mg/L. The acetone is permitted to evaporate for five minutes. The containers are then closed with lids and placed for three days at 21° C. After storage, fruits are evaluated for incidence and severity (0 to 4) of disease for an additional three days at 21° C., with results summarized in Table 17.

Alternaria alternata [2] = test: combination treatment with 1-MCP on broccoli; format: in vivo; set-up: scale not given here; conditions: 21° C.
Method: To evaluate a combination treatment of Compound A with 1-methylcyclopropene (1-MCP), an in vivo experiment is performed on broccoli.
Broccoli flowers are inoculated with 1×10^6 spores/mL of Alternaria alternata and then placed in a 117 L Rubbermaid storage box (Cat #2244) with two small fans placed in opposite ends of the container. A 500 ppb v/v 1-MCP treatment is applied (AgroFresh, Springhouse, Pa.) for 24 hours at 1° C. After completion of the 1-MCP treatment, broccoli florets are removed and placed in a 10.8-cup SnapWare airtight container (Model #109842). Compound A powder is applied in a dose dependent manner to achieve a final headspace concentration of 2 or 0.4 mg/L with a sublimation device (copper tube heated to 200° C. with fan flow at 0.5 L/min), with the end of the tube penetrating through a ½ inch side port in the container that is sealed immediately after the application. The florets are incubated for five days at 10° C. or three days at 21° C., then evaluated for an additional five days at 21° C. for disease incidence and severity.

Penicillium digitatum = test: in vivo contact drench assay on oranges
Method: In order to assess the activity of Compound A (FIG. 1) as a contact drench fungicide, an in vivo assay is developed. […] Compound A is dissolved in water to achieve a final treatment solution concentration of 250, 50, or 10 mg/L. The fruit is dipped in Compound A solution for 1 minute and allowed to dry for 1 hour. Fruit wounds are then inoculated with 30 μL of 1×10^6 per mL Penicillium expansum spore suspension (apple) or Penicillium digitatum spore suspension (orange). Clamshells are then placed in a 10.8-cup SnapWare airtight container (Model #109842) and incubated for 3 days at 21° C.

Botrytis cinerea [3] = test: in vivo dose by time volatile bioassay using strawberry; conditions: 0.125 mg, 3-day treatment at 21° C. plus 2 days at 21° C., vs acetone only control
Alternaria alternata [4] = test: combination treatment with 1-MCP on broccoli; format: in vivo; set-up: scale not given here; conditions: 11 C.
[5] = Blueberry, 0.4 mg/L, evaluation day 0
[6] = Blueberry, 0.4 mg/L, evaluation day 1
[7] = Blueberry, 0.4 mg/L, evaluation day 2
[8] = Blueberry, 0.4 mg/L, evaluation day 3
[9] = Blueberry, 2 mg/L, evaluation day 0
[10] = Blueberry, 2 mg/L, evaluation day 1
[11] = Blueberry, 2 mg/L, evaluation day 2
[12] = Blueberry, 2 mg/L, evaluation day 3
[13] = Blueberry, 10 mg/L, evaluation day 0
[14] = Blueberry, 10 mg/L, evaluation day 1
[15] = Blueberry, 10 mg/L, evaluation day 2
[16] = Blueberry, 10 mg/L, evaluation day 3
[17] = Grape, 0.4 mg/L, evaluation day 0
[18] = Grape, 0.4 mg/L, evaluation day 1
[19] = Grape, 0.4 mg/L, evaluation day 2
[20] = Grape, 0.4 mg/L, evaluation day 3
[21] = Grape, 2 mg/L, evaluation day 2
[22] = Grape, 2 mg/L, evaluation day 3
[23] = Grape, 10 mg/L, evaluation day 2
[24] = Grape, 10 mg/L, evaluation day 3
[25] = Strawberry, 0.4 mg/L, evaluation day 0
[26] = Strawberry, 0.4 mg/L, evaluation day 1
[27] = Strawberry, 0.4 mg/L, evaluation day 2
[28] = Strawberry, 0.4 mg/L, evaluation day 3
[29] = Strawberry, 2 mg/L, evaluation day 0
[30] = Strawberry, 2 mg/L, evaluation day 1
[31] = Strawberry, 2 mg/L, evaluation day 2
[32] = Strawberry, 2 mg/L, evaluation day 3
[33] = Strawberry, 10 mg/L, evaluation day 0
[34] = Strawberry, 10 mg/L, evaluation day 1
[35] = Strawberry, 10 mg/L, evaluation day 2
[36] = Strawberry, 10 mg/L, evaluation day 3

Q: For OB1OCc2cc(F)ccc21 [Compound A], which “Incidence (%)” value (Botrytis cinerea [1]; [5]) is on record?
A: The value was 21%.

Q: What about the “Severity (0-4)” value (Botrytis cinerea [1]; [5]) of the same compound?
A: The value was 0.1.

Q: What about the “Incidence (%)” value (Botrytis cinerea [1]; [6]) of the same compound?
A: Its value is 21%.

Q: What about the “Severity (0-4)” value (Botrytis cinerea [1]; [6]) of the same compound?
A: The value was 0.2.

Q: And the “Incidence (%)” value (Botrytis cinerea [1]; [7])?
A: The value was 40.3%.

Q: And the “Severity (0-4)” value (Botrytis cinerea [1]; [7])?
A: Its value is 0.5.

Q: And the “Incidence (%)” value (Botrytis cinerea [1]; [8])?
A: Its value is 62.9%.

Q: And the “Severity (0-4)” value (Botrytis cinerea [1]; [8])?
A: Its value is 1.

Q: What about the “Incidence (%)” value (Botrytis cinerea [1]; [9]) of the same compound?
A: Its value is 9.7%.

Q: And the “Severity (0-4)” value (Botrytis cinerea [1]; [9])?
A: The value was 0.

Q: And the “Incidence (%)” value (Botrytis cinerea [1]; [10])?
A: The value was 9.7%.

Q: What about the “Severity (0-4)” value (Botrytis cinerea [1]; [10]) of the same compound?
A: Its value is 0.

Q: And the “Incidence (%)” value (Botrytis cinerea [1]; [11])?
A: Its value is 9.7%.

Q: And the “Severity (0-4)” value (Botrytis cinerea [1]; [11])?
A: Its value is 0.1.

Q: And the “Incidence (%)” value (Botrytis cinerea [1]; [12])?
A: The value was 40.3%.

Q: What about the “Severity (0-4)” value (Botrytis cinerea [1]; [12]) of the same compound?
A: The value was 0.6.

Q: And the “Incidence (%)” value (Botrytis cinerea [1]; [13])?
A: The value was 12.9%.

Q: What about the “Severity (0-4)” value (Botrytis cinerea [1]; [13]) of the same compound?
A: The value was 0.1.

Q: And the “Incidence (%)” value (Botrytis cinerea [1]; [14])?
A: The value was 12.9%.

Q: What about the “Severity (0-4)” value (Botrytis cinerea [1]; [14]) of the same compound?
A: Its value is 0.1.

Q: What about the “Incidence (%)” value (Botrytis cinerea [1]; [15]) of the same compound?
A: The value was 12.9%.

Q: And the “Severity (0-4)” value (Botrytis cinerea [1]; [15])?
A: The value was 0.2.

Q: What about the “Incidence (%)” value (Botrytis cinerea [1]; [16]) of the same compound?
A: Its value is 41.9%.

Q: And the “Severity (0-4)” value (Botrytis cinerea [1]; [16])?
A: Its value is 0.6.

Q: What about the “Incidence (%)” value (Botrytis cinerea [1]; [17]) of the same compound?
A: Its value is 3.1%.

Q: What about the “Severity (0-4)” value (Botrytis cinerea [1]; [17]) of the same compound?
A: Its value is 0.

Q: And the “Incidence (%)” value (Botrytis cinerea [1]; [18])?
A: Its value is 3.1%.

Q: What about the “Severity (0-4)” value (Botrytis cinerea [1]; [18]) of the same compound?
A: Its value is 0.

Q: What about the “Incidence (%)” value (Botrytis cinerea [1]; [19]) of the same compound?
A: Its value is 15.6%.

Q: And the “Severity (0-4)” value (Botrytis cinerea [1]; [19])?
A: Its value is 0.2.

Q: And the “Incidence (%)” value (Botrytis cinerea [1]; [20])?
A: Its value is 62.5%.

Q: And the “Severity (0-4)” value (Botrytis cinerea [1]; [20])?
A: The value was 0.5.

Q: What about the “Severity (0-4)” value (Botrytis cinerea [1]; Grape, 2 mg/L, evaluation day 0) of the same compound?
A: The value was 0.

Q: What about the “Severity (0-4)” value (Botrytis cinerea [1]; Grape, 2 mg/L, evaluation day 1) of the same compound?
A: Its value is 0.

Q: And the “Incidence (%)” value (Botrytis cinerea [1]; [21])?
A: Its value is 0%.

Q: What about the “Severity (0-4)” value (Botrytis cinerea [1]; [21]) of the same compound?
A: Its value is 0.

Q: And the “Incidence (%)” value (Botrytis cinerea [1]; [22])?
A: Its value is 56.3%.

Q: What about the “Severity (0-4)” value (Botrytis cinerea [1]; [22]) of the same compound?
A: Its value is 0.3.

Q: And the “Severity (0-4)” value (Botrytis cinerea [1]; Grape, 10 mg/L, evaluation day 0)?
A: Its value is 0.

Q: What about the “Severity (0-4)” value (Botrytis cinerea [1]; Grape, 10 mg/L, evaluation day 1) of the same compound?
A: The value was 0.

Q: And the “Incidence (%)” value (Botrytis cinerea [1]; [23])?
A: The value was 3.1%.

Q: And the “Severity (0-4)” value (Botrytis cinerea [1]; [23])?
A: The value was 0.

Q: What about the “Incidence (%)” value (Botrytis cinerea [1]; [24]) of the same compound?
A: The value was 56.3%.

Q: What about the “Severity (0-4)” value (Botrytis cinerea [1]; [24]) of the same compound?
A: The value was 0.4.

Q: And the “Incidence (%)” value (Botrytis cinerea [1]; [25])?
A: The value was 0%.

Q: What about the “Severity (0-4)” value (Botrytis cinerea [1]; [25]) of the same compound?
A: The value was 0.

Q: And the “Incidence (%)” value (Botrytis cinerea [1]; [26])?
A: Its value is 21.4%.

Q: What about the “Severity (0-4)” value (Botrytis cinerea [1]; [26]) of the same compound?
A: The value was 0.1.

Q: What about the “Incidence (%)” value (Botrytis cinerea [1]; [27]) of the same compound?
A: Its value is 21.4%.

Q: What about the “Severity (0-4)” value (Botrytis cinerea [1]; [27]) of the same compound?
A: The value was 0.1.

Q: What about the “Incidence (%)” value (Botrytis cinerea [1]; [28]) of the same compound?
A: Its value is 28.6%.

Q: And the “Severity (0-4)” value (Botrytis cinerea [1]; [28])?
A: The value was 0.5.

Q: What about the “Incidence (%)” value (Botrytis cinerea [1]; [29]) of the same compound?
A: Its value is 14.3%.

Q: And the “Severity (0-4)” value (Botrytis cinerea [1]; [29])?
A: Its value is 0.1.

Q: What about the “Incidence (%)” value (Botrytis cinerea [1]; [30]) of the same compound?
A: Its value is 50%.

Q: What about the “Severity (0-4)” value (Botrytis cinerea [1]; [30]) of the same compound?
A: The value was 0.3.

Q: What about the “Incidence (%)” value (Botrytis cinerea [1]; [31]) of the same compound?
A: The value was 50%.

Q: And the “Severity (0-4)” value (Botrytis cinerea [1]; [31])?
A: Its value is 0.3.

Q: And the “Incidence (%)” value (Botrytis cinerea [1]; [32])?
A: Its value is 64.3%.

Q: What about the “Severity (0-4)” value (Botrytis cinerea [1]; [32]) of the same compound?
A: Its value is 0.5.

Q: What about the “Incidence (%)” value (Botrytis cinerea [1]; [33]) of the same compound?
A: The value was 7.1%.

Q: And the “Severity (0-4)” value (Botrytis cinerea [1]; [33])?
A: The value was 0.

Q: And the “Incidence (%)” value (Botrytis cinerea [1]; [34])?
A: Its value is 35.7%.

Q: And the “Severity (0-4)” value (Botrytis cinerea [1]; [34])?
A: Its value is 0.2.

Q: What about the “Incidence (%)” value (Botrytis cinerea [1]; [35]) of the same compound?
A: The value was 42.9%.

Q: And the “Severity (0-4)” value (Botrytis cinerea [1]; [35])?
A: The value was 0.5.

Q: What about the “Incidence (%)” value (Botrytis cinerea [1]; [36]) of the same compound?
A: Its value is 42.9%.

Q: And the “Severity (0-4)” value (Botrytis cinerea [1]; [36])?
A: Its value is 0.8.

Q: What about the “Color Score” value (Alternaria alternata [2]; 0.4 mg/L) of the same compound?
A: Its value is 1.32.

Q: What about the Severity (Alternaria alternata [2]; 0.4 mg/L) of the same compound?
A: Its Severity is 0.29.

Q: What about the “Color Score” value (Alternaria alternata [2]; 2 mg/L) of the same compound?
A: Its value is 1.89.

Q: What about the Severity (Alternaria alternata [2]; 2 mg/L) of the same compound?
A: Its Severity is 0.07.

Q: And the “Sporulation (mm)” value (Penicillium digitatum; dip 10 mg/L)?
A: Its value is 16.6 mm.

Q: And the “Water soaked (mm)” value (Penicillium digitatum; dip 10 mg/L)?
A: Its value is 27.5 mm.

Q: And the “Sporulation (mm)” value (Penicillium digitatum; dip 50 mg/L)?
A: The value was 12.0 mm.

Q: And the “Water soaked (mm)” value (Penicillium digitatum; dip 50 mg/L)?
A: The value was 18.8 mm.

Q: What about the “Sporulation (mm)” value (Penicillium digitatum; dip 250 mg/L) of the same compound?
A: Its value is 0.4 mm.

Q: What about the “Water soaked (mm)” value (Penicillium digitatum; dip 250 mg/L) of the same compound?
A: Its value is 1.7 mm.

Q: What about the “in vivo inhibition of Botrytis cinerea” value (Botrytis cinerea [3]) of the same compound?
A: The value was 100%.

Q: And the “Color Score” value (Alternaria alternata [4]; 0.4 mg/L)?
A: The value was 1.75.

Q: And the Severity (Alternaria alternata [4]; 0.4 mg/L)?
A: The Severity was 0.00.

Q: What about the “Color Score” value (Alternaria alternata [4]; 2 mg/L) of the same compound?
A: Its value is 2.11.

Q: What about the Severity (Alternaria alternata [4]; 2 mg/L) of the same compound?
A: The Severity was 0.00.
